These results are taken from patent US11858935B1, “Pyrrolo[2,3-c][1,7]naphthyridine-2-carboxylic acid compounds as CK2 inhibitors” (KING FAISAL UNIVERSITY, priority 2023, dated 2024).

Test [1] concerns PC3 (prostate). Kind of test: In vitro cytotoxic activity (MTT) assay, PC3. Format: cell-based. As to conditions: Homo sapiens, Prostate cell; PC3 (prostate) cells, exposed 96 hours; read-out: IC50, concentration eliciting 50% inhibition of cell proliferation. As for the experimental part: (§1) Compounds 1-16 were screened for their in vitro cytotoxic activity utilizing a 3-(4,5-dimethyl-thiazol-2-yl)-2,5-diphenyltetrazolium bromide (MTT) assay against selected cancer human cell lines consisting of PC3 (prostate), HCT116 (colon), A375 (melanoma), H1299 (lung), MIAPaCa-2 (pancreas), HL60 (leukemia), MCF7 (breast), MDA-MB-231 (breast) (T. Mosmann, J. Immunol. Meth., 1983, 65, 55-63). The cells were cultured at 37° C. in RMPI1640 medium supplemented with 10% fetal bovine serum, 50 IU/mL penicillin, and 50 μg/mL streptomycin in a 5% CO2 incubator. All cells were sub-cultured 3 times/week by trypsinisation. Viable cells were seeded and allowed to adhere for 12 h before a test drug was added in 96-well plates at an initial density of 1.0×10^5 cells/mL. Tumor cell lines were separately exposed to various concentrations of the tested compounds followed by incubation at a temperature of 37° C. during 96 h inside a medium of fresh RMPI 1640. Cells were subsequently incubated at 37° C. using MTT at 0.5 mg/mL during 4 h. After removal of supernatant, formazan crystals were dissolved in isopropanol and the optical density was measured at 570 nm. CX-4945 was used as a positive control.

Test [2] has as its system HCT116 (colon). As to the kind of experiment: In vitro cytotoxic activity (MTT) assay, HCT116. As to conditions: Homo sapiens, HCT-116; HCT116 (colon) cells, exposed 96 hours; read-out: IC50, concentration eliciting 50% inhibition of cell proliferation. Format: cell-based. As for the experimental part:
as §1

Test [3] deals with A375 (melanoma). As to the kind of experiment: In vitro cytotoxic activity (MTT) assay, A375. In kind it is cell-based. Conditions: Homo sapiens, A-375; A375 (melanoma) cells, exposed 96 hours; read-out: IC50, concentration eliciting 50% inhibition of cell proliferation. Here is the method:
as §1

Test [4] has as its system H1299 (lung). Kind of test: In vitro cytotoxic activity (MTT) assay, H1299. Format: cell-based. As to conditions: Homo sapiens, NCI-H1299; H1299 (lung) cells, exposed 96 hours; read-out: IC50, concentration eliciting 50% inhibition of cell proliferation. Here is the method: as §1
The subject of test [5] is MIAPaCa-2 (pancreas). As to the kind of experiment: In vitro cytotoxic activity (MTT) assay, MIAPaCa-2. Format: cell-based. As to conditions: Homo sapiens, MIA PaCa-2; MIAPaCa-2 (pancreas) cells, exposed 96 hours; read-out: IC50, concentration eliciting 50% inhibition of cell proliferation. Here is the method:
as §1

The subject of test [6] is HL60 (leukemia). Kind of test: In vitro cytotoxic activity (MTT) assay, HL60. In kind it is cell-based. Conditions: Homo sapiens, HL-60; HL60 (leukemia) cells, exposed 96 hours; read-out: IC50, concentration eliciting 50% inhibition of cell proliferation. As for the experimental part:
as §1

The subject of test [7] is MCF7 (breast). Kind of test: In vitro cytotoxic activity (MTT) assay, MCF7. In kind it is cell-based. As to conditions: Homo sapiens; MCF7 (breast) cells, exposed 96 hours; read-out: IC50, concentration eliciting 50% inhibition of cell proliferation. Here is the method: as §1
The subject of test [8] is MDA-MB-231 (breast). As to the kind of experiment: In vitro cytotoxic activity (MTT) assay, MDA-MB-231. As to conditions: Homo sapiens; MDA-MB-231 (breast) cells, exposed 96 hours; read-out: IC50, concentration eliciting 50% inhibition of cell proliferation. Format: cell-based. As for the experimental part:
as §1

The target of test [9] is T1, recombinant human CK2 (RRββ-holoenzyme) (Homo sapiens, UniProt P68400).
T1 construct: purchased Millipore
T1 sequence (P68400 whole entry): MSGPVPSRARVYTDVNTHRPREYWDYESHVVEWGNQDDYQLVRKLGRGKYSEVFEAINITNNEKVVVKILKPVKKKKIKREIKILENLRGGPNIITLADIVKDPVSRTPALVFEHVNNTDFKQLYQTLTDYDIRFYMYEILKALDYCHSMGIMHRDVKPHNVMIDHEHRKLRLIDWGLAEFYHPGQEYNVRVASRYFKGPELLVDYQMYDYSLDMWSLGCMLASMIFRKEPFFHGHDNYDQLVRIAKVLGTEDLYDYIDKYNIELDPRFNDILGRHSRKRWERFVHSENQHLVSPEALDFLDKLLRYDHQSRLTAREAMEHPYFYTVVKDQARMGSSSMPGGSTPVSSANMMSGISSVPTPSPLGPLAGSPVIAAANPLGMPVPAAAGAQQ
T1 sequence (P67870 whole entry partner): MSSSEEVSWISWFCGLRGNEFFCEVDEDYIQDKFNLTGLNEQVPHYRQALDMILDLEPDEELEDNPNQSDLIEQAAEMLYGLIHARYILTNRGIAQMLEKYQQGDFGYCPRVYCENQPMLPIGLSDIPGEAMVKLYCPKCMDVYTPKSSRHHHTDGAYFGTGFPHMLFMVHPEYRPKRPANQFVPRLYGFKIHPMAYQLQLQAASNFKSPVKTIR
As to the kind of experiment: CK2 Kinase Assay (33P-ATP, substrate peptide RRRDDDSDDD). Conditions: final ATP concentration 15 μM, 10 min at 30° C.; read-out: protein kinase CK2 IC50. Format: biochemical. As for the experimental part: CK2 Kinase Assay was conducted using the protocol as described in Pierre F. et al; J. Med. Chem. 2011, 54, 635-654. The tested compounds in aqueous solution were added at a volume of 10 μL to a reaction mixture comprising 10 μL of assay dilution buffer (ADB; 20 mM MOPS, pH 7.2, 25 mM β-glycerol phosphate, 5 mM EGTA, 1 mM sodium orthovanadate, and 1 mM dithiothreitol), 10 μL of substrate peptide (RRRDDDSDDD, dissolved in ADB at a concentration of 1 mM), 10 μL of recombinant human CK2 (RRββ-holoenzyme, 25 ng dissolved in ADB; Millipore). Reactions were initiated by the addition of 10 μL of ATP solution (90% 75 mM MgCl2, 75 μM ATP (final ATP concentration:15 μM) dissolved in ADB; 10% [γ-33P] ATP (stock 1 mCi/100 μL; 3000 Ci/mmol (Perkin-Elmer) and maintained for 10 min at 30° C. The reactions were quenched with 100 μL of 0.75% phosphoric acid and then transferred to and filtered through a phosphor cellulose filter plate (Millipore). After washing each well five times with 0.75% phosphoric acid, the plate was dried under vacuum for 5 min and, following the addition of 15 μL of scintillation fluid to each well, the residual radioactivity was measured using a Wallac […]. The IC50 values were derived from eight concentrations of test inhibitors.

Regarding `O=C(O)c1cc2c([nH]1)c(Nc1cccc(Cl)c1)nc1cnccc12` [Compound 1, 4-((3-chlorophenyl)amino)-3H-pyrrolo[2,3-c][1,7]naphthyridine-2-carboxylic acid], the IC50 was found to be 1500 nM in test [1]; 1800 nM in [2]; 2300 nM in test [3]; 1400 nM in test [4]; 1700 nM in test [5]; 3100 nM in [6]. The results for the IC50 in test [7], in test [8] and in test [9] were 4200 nM, 3600 nM and 26 nM, respectively.
